Key:
Type in all cases: physicochemical
[1] = Encapsulation efficiency of lipid nanoparticles, Quant-it Ribogreen RNA quantification assay; settings: LNP with mRNA
In short: (§1)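 LNPs of cationic lipid:DSPC:cholesterol:PEG-lipid (50:10:38.5:1.5 molar) with mRNA in 10–50 mM citrate pH 4, microfluidic mixing at 1:3 ethanol:aqueous, lipid:mRNA weight ratio ~10:1–30:1, dialysed into DPBS and 0.2 μm filtered. Size by DLS, 173° backscatter; encapsulation efficiency by Ribogreen assay.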

[2] = Apparent pKa of LNP formulations, TNS fluorescence assay; settings: LNP cationic lipid/DSPC/cholesterol/DMG-PEG 50/10/38.5/1.5 mol %, pH 3 to 9
In short: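 LNPs (cationic lipid/DSPC/cholesterol/DMG-PEG 50/10/38.5/1.5 mol %) at 0.1 mg/ml total lipid in citrate/phosphate/borate buffers, pH 3–9, with TNS added; fluorescence read at room temperature (ex 325, em 435 nm). Apparent pKa is the pH giving half-maximal fluorescence from a sigmoidal fit.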

[3] = Lipid nanoparticle size and polydispersity by dynamic light scattering (Malvern Zetasizer Nano ZS); settings: LNP of cationic lipid/DSPC/cholesterol/PEG-lipid 50:10:38.5:1.5 with mRNA
In short: as §1

Row | SMILES | Encapsulation Efficiency [1] | Apparant Pka [2] | polydispersity [3] | size (nm) [3]
1 | CCCCCCCCCCCCCCCC(=O)OCC(CCCCN(CCO)C1CCCCCC1)COC(=O)CC(CCCCCC)CCCCCCCC (stereo not drawn) [Compound 87] | 92.47% | 6.372 | 0.044 | 64.08 nm
2 | CCCCCCCCCCCCCCCC(=O)OCC(CCCCN(CCO)C1CCCCCCC1)COC(=O)CC(CCCCCC)CCCCCCCC (stereo not drawn) [Compound 88] | 92.91% | 6.309 | 0.063 | 59.54 nm
3 | CCCCC/C=C\C/C=C\CCCCCCCC(=O)OCC(CCCCN(CCO)C1CCC1)COC(=O)CC(CCCCCC)CCCCCCCC (stereo not drawn) [Compound 89] | 92.56% | 6.926 | 0.04 | 69.36 nm
4 | CCCCC/C=C\C/C=C\CCCCCCCC(=O)OCC(CCCCN(CCO)C1CCCC1)COC(=O)CC(CCCCCC)CCCCCCCC (stereo not drawn) [Compound 90] | 93.02% | 7.024 | 0.043 | 70.38 nm
5 | CCCCC/C=C\C/C=C\CCCCCCCC(=O)OCC(CCCCN(CCO)C1CCCCCC1)COC(=O)CC(CCCCCC)CCCCCCCC (stereo not drawn) [Compound 91] | 92.11% | 6.608 | 0.111 | 63.89 nm
6 | CCCCCCCCCCC(=O)OCC(CCCCN(CCO)C1CCCCCCC1)COC(=O)CC(CCCCCC)CCCCCCCC (stereo not drawn) [Compound 93] | 85.30% | 6.377 | 0.111 | 63.32 nm
7 | CCCCCCCCCCC(=O)OCC(CCCCN(CC=C(C)C)CCO)COC(=O)CC(CCCCCC)CCCCCCCC (stereo not drawn) [Compound 94] | 93.93% | 6.793 | 0.04 | 77.15 nm
8 | CCCCCCCCCCCCCCCC(=O)OCC(CCCCN(CCO)C1CCC1)COC(=O)CC(CCCCCC)CCCCCCCC (stereo not drawn) [Compound 98] | 93.58% | 6.997 | 0.01 | 77.16 nm
9 | CCCCCCCCCCCCCCCC(=O)OCC(CCCCN(CCO)C1CCCC1)COC(=O)CC(CCCCCC)CCCCCCCC (stereo not drawn) [Compound 99] | 94.14% | 7.059 | 0.025 | 77.25 nm
10 | CCCCC/C=C\C/C=C\CCCCCCCC(=O)OCC(CCCCN(CCO)C1CCCCC1)COC(=O)CC(CCCCCC)CCCCCCCC (stereo not drawn) [Compound 100] | 91.24% | 6.666 | 0.055 | 64.54 nm
11 | CCCCC/C=C\C/C=C\CCCCCCCC(=O)OCC(CCCCN(CCO)C1CCCCCCC1)COC(=O)CC(CCCCCC)CCCCCCCC (stereo not drawn) [Compound 101] | 92.79% | 6.488 | 0.111 | 59.51 nm
12 | CCCCCCCCC(CCCCCC)COC(=O)CCOCC(CN(CCC)CCN(CCO)C1CCCCCC1)OCCC(=O)OCC(CCCCCC)CCCCCCCC (stereo not drawn) [Compound 106] | 93.17% | 6.035 | 0.046 | 65.31 nm
13 | CCCCCCCCC(CCCCCC)CC(=O)OCC(CCCCN(CCN(CCO)CCCC)C1CCC1)COC(=O)CC(CCCCCC)CCCCCCCC (stereo not drawn) [Compound 109] | 92.59% | 6.204 | 0.011 | 74 nm
14 | CCCCCCCCC(CCCCCC)CC(=O)OCC(CCCCN(CCN(CCO)CCCCC)C1CCC1)COC(=O)CC(CCCCCC)CCCCCCCC (stereo not drawn) [Compound 110] | 92.71% | 6.147 | 0.038 | 75.71 nm
15 | CCCCCCCCC(CCCCCC)CC(=O)OCC(CCCCN(CCN(CCO)CCCCCC)C1CCC1)COC(=O)CC(CCCCCC)CCCCCCCC (stereo not drawn) [Compound 111] | 92.54% | 6.072 | 0.048 | 62.77 nm

From patent US11964052B2, “Lipid compounds and lipid nanoparticle compositions” (SUZHOU ABOGEN BIOSCIENCES CO., LTD., priority 2021, dated 2024)
